Test results published in article PMC10949855 (Journal of veterinary pharmacology and therapeutics, 2022).

Tested on: healthy dogs
Experiment: Sedation score
Type: in vivo, dogs (Beagles)
[1] = IV CRI 0.2 mg/kg + 0.2 mg/kg/hr for 8 hr, 0.5 hr
[2] = IV CRI 0.2 mg/kg + 0.2 mg/kg/hr for 8 hr, 1 hr
[3] = IV CRI 0.2 mg/kg + 0.2 mg/kg/hr for 8 hr, 1.5 hr
[4] = IV CRI 0.2 mg/kg + 0.2 mg/kg/hr for 8 hr, 2 hr
[5] = IV CRI 0.2 mg/kg + 0.2 mg/kg/hr for 8 hr, 3 hr
[6] = IV CRI 0.2 mg/kg + 0.2 mg/kg/hr for 8 hr, 4 hr
[7] = IV CRI 0.2 mg/kg + 0.2 mg/kg/hr for 8 hr, 5 hr
[8] = IV CRI 0.2 mg/kg + 0.2 mg/kg/hr for 8 hr, 6 hr
[9] = IV CRI 0.2 mg/kg + 0.2 mg/kg/hr for 8 hr, 7 hr
[10] = IV CRI 0.2 mg/kg + 0.2 mg/kg/hr for 8 hr, 8 hr
[11] = IV CRI 0.2 mg/kg + 0.2 mg/kg/hr for 8 hr, 9 hr
[12] = IV CRI 0.2 mg/kg + 0.2 mg/kg/hr for 8 hr, 10 hr
[13] = IV CRI 0.2 mg/kg + 0.2 mg/kg/hr for 8 hr, 11 hr
[14] = IV CRI 0.2 mg/kg + 0.2 mg/kg/hr for 8 hr, 12 hr
[15] = IV CRI 0.2 mg/kg + 0.2 mg/kg/hr for 8 hr, 24 hr

Oc1ccc2c(c1)[C@@]13CCCC[C@@]1(O)[C@@H](C2)N(CC1CCC1)CC3 [butorphanol]
2: number of dogs with sedation score 2 [1] | number of dogs with sedation score 2 [4] | number of dogs with sedation score 2 [5] | number of dogs with sedation score 2 [10] | number of dogs with sedation score 0 [13]
1: number of dogs with sedation score 2 [2] | number of dogs with sedation score 3 [2] | number of dogs with sedation score 2 [3] | number of dogs with sedation score 3 [3] | number of dogs with sedation score 2 [6] | number of dogs with sedation score 2 [7] | number of dogs with sedation score 2 [8] | number of dogs with sedation score 2 [9] | number of dogs with sedation score 1 [14] | number of dogs with sedation score 2 (IV bolus 0.4 mg/kg, 1.5 hr) | number of dogs with sedation score 2 (IV bolus 0.4 mg/kg, 2 hr) | number of dogs with sedation score 0 (IV bolus 0.4 mg/kg, 4 hr) | number of dogs with sedation score 0 (IV bolus 0.4 mg/kg, 5 hr) | number of dogs with sedation score 1 (IV bolus 0.4 mg/kg, 6 hr) | number of dogs with sedation score 1 (IV bolus 0.4 mg/kg, 7 hr)
0: number of dogs with sedation score 0 [1] | number of dogs with sedation score 3 [1] | number of dogs with sedation score 0 [2] | number of dogs with sedation score 0 [3] | number of dogs with sedation score 0 [4] | number of dogs with sedation score 3 [4] | number of dogs with sedation score 0 [5] | number of dogs with sedation score 3 [5] | number of dogs with sedation score 0 [6] | number of dogs with sedation score 3 [6] | number of dogs with sedation score 0 [7] | number of dogs with sedation score 3 [7] | number of dogs with sedation score 0 [8] | number of dogs with sedation score 3 [8] | number of dogs with sedation score 0 [9] | number of dogs with sedation score 3 [9] | number of dogs with sedation score 0 [10] | number of dogs with sedation score 3 [10] | number of dogs with sedation score 0 [11] | number of dogs with sedation score 2 [11] | number of dogs with sedation score 3 [11] | number of dogs with sedation score 0 [12] | number of dogs with sedation score 2 [12] | number of dogs with sedation score 3 [12] | number of dogs with sedation score 2 [13] | number of dogs with sedation score 3 [13] | number of dogs with sedation score 2 [14] | number of dogs with sedation score 3 [14] | number of dogs with sedation score 1 [15] | number of dogs with sedation score 2 [15] | number of dogs with sedation score 3 [15] | number of dogs with sedation score 0 (IV bolus 0.4 mg/kg, 0.5 hr) | number of dogs with sedation score 2 (IV bolus 0.4 mg/kg, 0.5 hr) | number of dogs with sedation score 3 (IV bolus 0.4 mg/kg, 0.5 hr) | number of dogs with sedation score 0 (IV bolus 0.4 mg/kg, 1 hr) | number of dogs with sedation score 2 (IV bolus 0.4 mg/kg, 1 hr) | number of dogs with sedation score 3 (IV bolus 0.4 mg/kg, 1 hr) | number of dogs with sedation score 0 (IV bolus 0.4 mg/kg, 1.5 hr) | number of dogs with sedation score 3 (IV bolus 0.4 mg/kg, 1.5 hr) | number of dogs with sedation score 0 (IV bolus 0.4 mg/kg, 2 hr) | number of dogs with sedation score 3 (IV bolus 0.4 mg/kg, 2 hr) | number of dogs with sedation score 0 (IV bolus 0.4 mg/kg, 3 hr) | number of dogs with sedation score 2 (IV bolus 0.4 mg/kg, 3 hr) | number of dogs with sedation score 3 (IV bolus 0.4 mg/kg, 3 hr) | number of dogs with sedation score 2 (IV bolus 0.4 mg/kg, 4 hr) | number of dogs with sedation score 3 (IV bolus 0.4 mg/kg, 4 hr) | number of dogs with sedation score 2 (IV bolus 0.4 mg/kg, 5 hr) | number of dogs with sedation score 3 (IV bolus 0.4 mg/kg, 5 hr) | number of dogs with sedation score 2 (IV bolus 0.4 mg/kg, 6 hr) | number of dogs with sedation score 3 (IV bolus 0.4 mg/kg, 6 hr) | number of dogs with sedation score 2 (IV bolus 0.4 mg/kg, 7 hr) | number of dogs with sedation score 3 (IV bolus 0.4 mg/kg, 7 hr) | number of dogs with sedation score 1 (IV bolus 0.4 mg/kg, 8 hr) | number of dogs with sedation score 2 (IV bolus 0.4 mg/kg, 8 hr) | number of dogs with sedation score 3 (IV bolus 0.4 mg/kg, 8 hr) | number of dogs with sedation score 1 (IV bolus 0.4 mg/kg, 9 hr) | number of dogs with sedation score 2 (IV bolus 0.4 mg/kg, 9 hr) | number of dogs with sedation score 3 (IV bolus 0.4 mg/kg, 9 hr) | number of dogs with sedation score 1 (IV bolus 0.4 mg/kg, 10 hr) | number of dogs with sedation score 2 (IV bolus 0.4 mg/kg, 10 hr) | number of dogs with sedation score 3 (IV bolus 0.4 mg/kg, 10 hr) | number of dogs with sedation score 1 (IV bolus 0.4 mg/kg, 11 hr) | number of dogs with sedation score 2 (IV bolus 0.4 mg/kg, 11 hr) | number of dogs with sedation score 3 (IV bolus 0.4 mg/kg, 11 hr) | number of dogs with sedation score 1 (IV bolus 0.4 mg/kg, 12 hr) | number of dogs with sedation score 2 (IV bolus 0.4 mg/kg, 12 hr) | number of dogs with sedation score 3 (IV bolus 0.4 mg/kg, 12 hr) | number of dogs with sedation score 1 (IV bolus 0.4 mg/kg, 24 hr) | number of dogs with sedation score 2 (IV bolus 0.4 mg/kg, 24 hr) | number of dogs with sedation score 3 (IV bolus 0.4 mg/kg, 24 hr)
1.5 to 2 h: time with moderate sedation or higher (sedation score >1) in at least one dog (IV bolus 0.4 mg/kg IV)
4: number of dogs with sedation score 1 [6] | number of dogs with sedation score 1 [7] | number of dogs with sedation score 1 [8] | number of dogs with sedation score 1 [9] | number of dogs with sedation score 0 [14] | number of dogs with sedation score 0 (IV bolus 0.4 mg/kg, 24 hr)
3: number of dogs with sedation score 1 [1] | number of dogs with sedation score 1 [2] | number of dogs with sedation score 1 [3] | number of dogs with sedation score 1 [4] | number of dogs with sedation score 1 [5] | number of dogs with sedation score 1 [10] | number of dogs with sedation score 1 [13]
5: number of dogs with sedation score 1 [11] | number of dogs with sedation score 1 [12] | number of dogs with sedation score 0 [15] | number of dogs with sedation score 1 (IV bolus 0.4 mg/kg, 1.5 hr) | number of dogs with sedation score 1 (IV bolus 0.4 mg/kg, 2 hr) | number of dogs with sedation score 1 (IV bolus 0.4 mg/kg, 4 hr) | number of dogs with sedation score 1 (IV bolus 0.4 mg/kg, 5 hr) | number of dogs with sedation score 0 (IV bolus 0.4 mg/kg, 6 hr) | number of dogs with sedation score 0 (IV bolus 0.4 mg/kg, 7 hr)
6: number of dogs with sedation score 1 (IV bolus 0.4 mg/kg, 0.5 hr) | number of dogs with sedation score 1 (IV bolus 0.4 mg/kg, 1 hr) | number of dogs with sedation score 1 (IV bolus 0.4 mg/kg, 3 hr) | number of dogs with sedation score 0 (IV bolus 0.4 mg/kg, 8 hr) | number of dogs with sedation score 0 (IV bolus 0.4 mg/kg, 9 hr) | number of dogs with sedation score 0 (IV bolus 0.4 mg/kg, 10 hr) | number of dogs with sedation score 0 (IV bolus 0.4 mg/kg, 11 hr) | number of dogs with sedation score 0 (IV bolus 0.4 mg/kg, 12 hr)
